{
  "source": "patent US8569484B2",
  "about": "“Heterocyclic urea derivatives and methods of use thereof” (Astrazeneca AB, priority 2009, dated 2013)",
  "data": [
    {"tested_on": "S. aureus", "experiment": "Bacterial susceptibility testing in liquid media (MIC)", "assay_type": "cell-based", "details": "Staphylococcus aureus; against S. aureus; lowest concentration able to reduce growth by 80% or more", "from_the_text": "Compounds may be tested for antimicrobial activity by susceptibility testing in liquid media. Compounds may be dissolved in dimethylsulfoxide and tested in 10 doubling dilutions in the susceptibility assays. The organisms used in the assay may be grown overnight on suitable agar media and then suspended in a liquid medium appropriate for the growth of the organism. The suspension can be a 0.5 McFarland and a further 1 in 10 dilution can be made into the same liquid medium to prepare the final organism suspension in 100 μL. Plates can be incubated under appropriate conditions at 37° C. for 24 hrs prior to reading. The Minimum Inhibitory Concentration (MIC) may be determined as the lowest drug concentration able to reduce growth by 80% or more.", "units": {"MIC": "µM"}, "values": [
      {"smiles": "CCNC(=O)Nc1cc(-c2nc(C(F)(F)F)cs2)c(-c2cnc3c(c2)c(=O)c(C(=O)O)cn3CCO)cn1", "note": "[Example 10, 6-{6-[(ethylcarbamoyl)amino]-4-[4-(trifluoromethyl)-1,3-thiazol-2-yl]pyridin-3-yl}-1-(2-hydroxyethyl)-4-oxo-1,4-dihydro-1,8-naphthyridine-3-carboxylic acid]", "MIC": 0.55}
    ]},
    {"target": "S. aureus GyrB ATPase (Staphylococcus aureus, UniProt P0A0K8)", "sequence (P0AES4 whole entry)": "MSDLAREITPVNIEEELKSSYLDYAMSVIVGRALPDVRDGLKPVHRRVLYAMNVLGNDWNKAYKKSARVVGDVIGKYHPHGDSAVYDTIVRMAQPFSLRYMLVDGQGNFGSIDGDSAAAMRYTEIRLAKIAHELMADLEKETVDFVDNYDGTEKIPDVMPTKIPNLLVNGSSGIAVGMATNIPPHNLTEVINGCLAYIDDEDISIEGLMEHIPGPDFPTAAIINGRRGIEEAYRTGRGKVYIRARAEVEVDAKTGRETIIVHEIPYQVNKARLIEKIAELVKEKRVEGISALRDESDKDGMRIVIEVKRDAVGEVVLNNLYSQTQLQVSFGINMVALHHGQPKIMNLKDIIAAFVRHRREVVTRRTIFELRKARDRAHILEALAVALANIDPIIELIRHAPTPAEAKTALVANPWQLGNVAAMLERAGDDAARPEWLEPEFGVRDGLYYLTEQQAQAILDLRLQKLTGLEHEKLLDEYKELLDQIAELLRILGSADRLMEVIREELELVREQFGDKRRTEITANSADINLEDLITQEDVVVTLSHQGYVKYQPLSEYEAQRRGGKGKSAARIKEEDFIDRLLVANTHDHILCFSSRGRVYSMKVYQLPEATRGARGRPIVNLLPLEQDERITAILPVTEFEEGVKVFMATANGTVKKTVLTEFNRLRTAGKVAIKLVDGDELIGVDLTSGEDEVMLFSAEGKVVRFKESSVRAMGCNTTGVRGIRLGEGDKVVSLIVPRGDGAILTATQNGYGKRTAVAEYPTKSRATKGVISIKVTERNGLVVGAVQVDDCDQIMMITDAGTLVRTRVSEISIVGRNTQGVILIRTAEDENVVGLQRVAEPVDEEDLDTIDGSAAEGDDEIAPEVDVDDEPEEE", "sequence (P0A0K8 whole entry)": "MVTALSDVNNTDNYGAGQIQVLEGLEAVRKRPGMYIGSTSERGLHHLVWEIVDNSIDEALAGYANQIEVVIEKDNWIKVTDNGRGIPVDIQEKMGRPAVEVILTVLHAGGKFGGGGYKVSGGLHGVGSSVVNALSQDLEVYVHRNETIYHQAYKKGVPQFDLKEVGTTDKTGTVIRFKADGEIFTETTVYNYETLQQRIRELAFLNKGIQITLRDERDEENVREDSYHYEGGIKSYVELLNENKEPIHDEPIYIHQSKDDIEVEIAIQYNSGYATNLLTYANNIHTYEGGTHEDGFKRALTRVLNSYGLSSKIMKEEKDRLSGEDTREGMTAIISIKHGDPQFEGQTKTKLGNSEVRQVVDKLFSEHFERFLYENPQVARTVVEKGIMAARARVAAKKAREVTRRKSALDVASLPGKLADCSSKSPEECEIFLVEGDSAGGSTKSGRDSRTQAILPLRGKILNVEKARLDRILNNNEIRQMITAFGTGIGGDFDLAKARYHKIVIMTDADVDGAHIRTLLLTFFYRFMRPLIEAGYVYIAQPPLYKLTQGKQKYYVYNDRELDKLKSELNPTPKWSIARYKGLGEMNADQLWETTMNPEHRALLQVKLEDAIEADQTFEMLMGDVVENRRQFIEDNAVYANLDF", "experiment": "S. aureus GyrB ATPase inhibition (ammonium molybdate/malachite green phosphate detection)", "assay_type": "biochemical", "details": "1 μM compound; S. aureus GyrB ATPase", "experimental": "(§1) S. aureus GyrB ATPase Inhibition Activity: Compounds may be tested for inhibition of S. aureus GyrB ATPase activity using an ammonium molybdate/malachite green-based phosphate detection assay (Lanzetta, P. A., L. J. Alvarez, P. S. Reinach, and O. A. Candia, 1979, 100: 95-97). Assays can be performed in multiwell plates in 30 μl reactions containing: 50 mM Hepes buffer pH 7.5, 75 mM ammonium acetate, 8.0 mM magnesium chloride, 0.5 mM ethylenediaminetetraacetic acid, 5% glycerol, 1.0 mM 1,4-Dithio-DL-threitol, 200 nM bovine serum albumin, 1.0 μg/ml sheared salmon sperm DNA, 250 pM E. coli GyrA, 250 pM S. aureus GyrB, 250 μM ATP, and compound in dimethylsulfoxide. Reactions can be quenched with 30 μl of ammonium molybdate/malachite green detection reagent containing 1.2 mM malachite green hydrochloride, 8.5 mM ammonium molybdate tetrahydrate, and 1 M hydrochloric acid. Plates can be read in an absorbance plate reader at 650 nm and percent inhibition values can be calculated using dimethylsulfoxide (2%)-containing reactions as 0% inhibition and EDTA-containing ([…]) reactions as 100% inhibition controls. An IC50 measurement of compound potency for each compound can be determined from reactions performed in the presence of 10 different compound concentrations.", "units": {"Percent Inhibition (1 μM)": "%"}, "values": [
      {"smiles": "CCNC(=O)Nc1cc(-c2nc(C(F)(F)F)cs2)c(-c2cc3c(=O)c(C(=O)O)cn([C@H]4CCCN(CCN(CC)CC)C4)c3cn2)cn1", "note": "[Example 52, (5)-1-(1-(2-(diethylamino)ethyl)piperidin-3-yl)-6-(6-(3-ethylureido)-4-(4-(trifluoromethyl)thiazol-2-yl)pyridin-3-yl)-4-oxo-1,4-dihydro-1,7-naphthyridine-3-carboxylic acid]", "Percent Inhibition (1 μM)": 105}
    ]},
    {"target": "S. aureus GyrB ATPase (Staphylococcus aureus, UniProt P0A0K8)", "experiment": "S. aureus GyrB ATPase inhibition (ammonium molybdate/malachite green phosphate detection)", "assay_type": "biochemical", "details": "1 μM compound; S. aureus GyrB ATPase; read-out: Percent Inhibition (1 μM)", "experimental": "as §1", "units": {"inhibition at 1 µM": "%"}, "values": [
      {"smiles": "CCNC(=O)Nc1cc(-c2nc(-c3cnn(C)c3)cs2)c(-c2cc3c(=O)c(C(=O)O)cn(Cc4cn(C)cn4)c3cn2)cn1", "note": "[Example 76, 6-(6-(3-ethylureido)-4-(4-(1-methyl-1H-pyrazol-4-yl)thiazol-2-yl)pyridin-3-yl)-1-((1-methyl-1H-imidazol-4-yl)methyl)-4-oxo-1,4-dihydro-1,7-naphthyridine-3-carboxylic acid]", "inhibition at 1 µM": 109},
      {"smiles": "CCNC(=O)Nc1cc(-c2nc(C(F)(F)F)cs2)c(-c2cnc3c(c2)c(=O)c(C(=O)O)cn3CCN(C)C)cn1", "note": "[Example 16, 1-[2-(dimethylamino)ethyl]-6-{6-[(ethylcarbamoyl)amino]-4-[4-(trifluoromethyl)-1,3-thiazol-2-yl]pyridin-3-yl}-4-oxo-1,4-dihydro-1,8-naphthyridine-3-carboxylic acid]", "inhibition at 1 µM": 104},
      {"smiles": "CCNC(=O)Nc1cc(-c2nc(C(F)(F)F)cs2)c(-c2cnc3c(c2)c(=O)c(C(=O)O)cn3CCOP(=O)(O)O)cn1", "note": "[Example 14, 6-{6-[(ethylcarbamoyl)amino]-4-[4-(trifluoromethyl)-1,3-thiazol-2-yl]pyridin-3-yl}-4-oxo-1-[2-(phosphonooxy)ethyl]-1,4-dihydro-1,8-naphthyridine-3-carboxylic acid]", "inhibition at 1 µM": 103},
      {"smiles": "CCNC(=O)Nc1cc(-c2nc(C(F)(F)F)cs2)c(-c2cnc3c(c2)c(=O)c(C(=O)O)cn3[C@H](CO)CC(C)C)cn1", "note": "[Example 11, 6-{6-[(ethylcarbamoyl)amino]-4-[4-(trifluoromethyl)-1,3-thiazol-2-yl]pyridin-3-yl}-1-[(2S)-1-hydroxy-4-methylpentan-2-yl]-4-oxo-1,4-dihydro-1,8-naphthyridine-3-carboxylic acid]", "inhibition at 1 µM": 104},
      {"smiles": "CCNC(=O)Nc1cc(-c2nc(-c3ccccc3)cs2)c(-c2cnc3c(c2)c(=O)c(C(=O)O)cn3[C@H]2CCCN(CCN(CC)CC)C2)cn1", "note": "[Example 35]", "inhibition at 1 µM": 102},
      {"smiles": "CCNC(=O)Nc1cc(-c2nc(C(F)(F)F)cs2)c(-c2cnc3c(c2)c(=O)c(C(=O)O)cn3C[C@@H]2CCCN2CC)cn1", "note": "[Example 32]", "inhibition at 1 µM": 103},
      {"smiles": "CCNC(=O)Nc1cc(-c2nc(C(F)(F)F)cs2)c(-c2cc3c(=O)c(C(=O)O)cn(C[C@@H]4CCCN4CC)c3nc2NCCN(C)C)cn1", "note": "[Example 36, 7-(2-(dimethylamino)ethylamino)-1-(((S)-1-ethylpyrrolidin-2-yl)methyl)-6-(6-(3-ethylureido)-4-(4-(trifluoromethyl)thiazol-2-yl)pyridin-3-yl)-4-oxo-1,4-dihydro-1,8-naphthyridine-3-carboxylic acid]", "inhibition at 1 µM": 100},
      {"smiles": "CCNC(=O)Nc1cc(-c2nc(C(F)(F)F)cs2)c(-c2cnc3c(c2)c(=O)c(C(=O)O)cn3C2CC2)cn1", "note": "[Example 9, 1-Cyclopropyl-6-{6-[(ethylcarbamoyl)amino]-4-[4-(trifluoromethyl)-1,3-thiazol-2-yl]pyridin-3-yl}-4-oxo-1,4-dihydro-1,8-naphthyridine-3-carboxylic acid]", "inhibition at 1 µM": 96},
      {"smiles": "CCNC(=O)Nc1cc(-c2nc(C(F)(F)F)cs2)c(-c2cc3c(=O)c(C(=O)O)cn(CC(C)N4CCOCC4)c3cn2)cn1", "note": "(stereo not shown) [Example 43]", "inhibition at 1 µM": 94},
      {"smiles": "CCNC(=O)Nc1cc(-c2nc(C(F)(F)F)cs2)c(-c2cc3c(=O)c(C(=O)O)cn([C@H]4CCCN(CCN5CCOCC5)C4)c3cn2)cn1", "note": "[Example 48]", "inhibition at 1 µM": 101},
      {"smiles": "CCNC(=O)Nc1cc(-c2nc(C(F)(F)F)cs2)c(-c2cc3c(=O)c(C(=O)O)cn([C@@H]4CCCN(CCN(CC)CC)C4)c3cn2)cn1", "note": "[Example 53]", "inhibition at 1 µM": 103},
      {"smiles": "CCNC(=O)Nc1cc(-c2nc(C(F)(F)F)cs2)c(-c2cnc3c(c2)c(=O)c(C(=O)O)cn3CCO)cn1", "note": "[Example 10, 6-{6-[(ethylcarbamoyl)amino]-4-[4-(trifluoromethyl)-1,3-thiazol-2-yl]pyridin-3-yl}-1-(2-hydroxyethyl)-4-oxo-1,4-dihydro-1,8-naphthyridine-3-carboxylic acid]", "inhibition at 1 µM": 93},
      {"smiles": "CCNC(=O)Nc1cc(-c2nc(C(F)(F)F)cs2)c(-c2cnc3c(c2)c(=O)c(C(=O)O)cn3[C@H](COP(=O)(O)O)CC(C)C)cn1", "note": "[Example 25, 6-{6-[(ethylcarbamoyl)amino]-4-[4-(trifluoromethyl)-1,3-thiazol-2-yl]pyridin-3-yl}-1-[(2S)-4-methyl-1-(phosphonooxy)pentan-2-yl]-4-oxo-1,4-dihydro-1,8-naphthyridine-3-carboxylic acid]", "inhibition at 1 µM": 108},
      {"smiles": "CCNC(=O)Nc1cc(-c2nc(-c3ccccc3)cs2)c(-c2cc3c(=O)c(C(=O)O)cn([C@H]4CCCN(CCN5CCOCC5)C4)c3cn2)cn1", "note": "[Example 63]", "inhibition at 1 µM": 105},
      {"smiles": "CCNC(=O)Nc1cc(-c2nc(C(F)(F)F)cs2)c(-c2cnc3c(c2)c(=O)c(C(=O)O)cn3[C@H]2CCCN(CCN3CCOCC3)C2)cn1", "note": "[Example 31]", "inhibition at 1 µM": 104},
      {"smiles": "CCNC(=O)Nc1cc(-c2nc(C(F)(F)F)cs2)c(-c2cc3c(=O)c(C(=O)O)cn(CCN4CCOCC4)c3cn2)cn1", "note": "[Example 69]", "inhibition at 1 µM": 103},
      {"smiles": "CCNC(=O)Nc1cc(-c2nc(-c3ccccc3)cs2)c(-c2cc3c(=O)c(C(=O)O)cn(Cc4cn(C)cn4)c3cn2)cn1", "note": "[Example 65]", "inhibition at 1 µM": 98},
      {"smiles": "CCNC(=O)Nc1cc(-c2nc(C(F)(F)F)cs2)c(-c2cc3c(=O)c(C(=O)O)cn(Cc4cnn(C)c4)c3cn2)cn1", "note": "[Example 51, 6-(6-(3-ethylureido)-4-(4-(trifluoromethyl)thiazol-2-yl)pyridin-3-yl)-1-((1-methyl-1H-pyrazol-4-yl)methyl)-4-oxo-1,4-dihydro-1,7-naphthyridine-3-carboxylic acid]", "inhibition at 1 µM": 102},
      {"smiles": "CCNC(=O)Nc1cc(-c2nc(C(F)(F)F)cs2)c(-c2cc3c(=O)c(C(=O)O)cn(CCN4CCN(C)CC4)c3nc2N2CC[C@@H](CN)C2)cn1", "note": "[Example 60]", "inhibition at 1 µM": 101},
      {"smiles": "CCNC(=O)Nc1cc(-c2nc(-c3ccccc3)cs2)c(-c2cc3c(=O)c(C(=O)O)cn([C@@H]4CCCN(CCN5CCOCC5)C4)c3cn2)cn1", "note": "[Example 64]", "inhibition at 1 µM": 100},
      {"smiles": "CCNC(=O)Nc1cc(-c2nc(C(F)(F)F)cs2)c(-c2cc3c(=O)c(C(=O)O)cn(C4CCCCC4)c3cn2)cn1", "note": "[Example 39, 1-cyclohexyl-6-(6-(3-ethylureido)-4-(4-(trifluoromethyl)thiazol-2-yl)pyridin-3-yl)-4-oxo-1,4-dihydro-1,7-naphthyridine-3-carboxylic acid]", "inhibition at 1 µM": 102},
      {"smiles": "CCNC(=O)Nc1cc(-c2nc(C(F)(F)F)cs2)c(-c2cc3c(=O)c(C(=O)O)cn(CCN(C)C)c3cn2)cn1", "note": "[Example 47]", "inhibition at 1 µM": 98},
      {"smiles": "CCNC(=O)Nc1cc(-c2nc(C(F)(F)F)cs2)c(-c2cc3c(=O)c(C(=O)O)cn(C(COC)COC)c3cn2)cn1", "note": "[Example 44]", "inhibition at 1 µM": 102},
      {"smiles": "CCNC(=O)Nc1cc(-c2nc(C(F)(F)F)cs2)c(-c2cnc3c(c2)c(=O)c(C(=O)O)cn3CCN2CCOCC2)cn1", "note": "[Example 56]", "inhibition at 1 µM": 101},
      {"smiles": "CCNC(=O)Nc1cc(-c2nc(C(F)(F)F)cs2)c(-c2cc3c(=O)c(C(=O)O)cn([C@@H]4CCCN(CCN5CCOCC5)C4)c3cn2)cn1", "note": "[Example 49]", "inhibition at 1 µM": 98},
      {"smiles": "CCNC(=O)Nc1cc(-c2nc(C(F)(F)F)cs2)c(-c2cc3c(=O)c(C(=O)O)cn(C(C)(C)C)c3cn2)cn1", "note": "[Example 66]", "inhibition at 1 µM": 106}
    ]}
  ]
}
